Data from US10828315B2 (Madrigal Pharmaceuticals, Inc., priority 2013, dated 2020).
Like-named read-outs stand apart in the source and are kept apart here. Each block holds one molecule with its values, some of them ahead of it.

Columns and labels:
[1] = mouse, plasma, 1 h; for % Remaining (1 h): 10 µM
[2] = female, SCID, mouse, in vivo
[3] = Retention of docetaxel SDC-TRAPs in plasma and tumor (Example 53); format: in vivo, Female SCID Mouse (H1975); settings: DRD
[4] = of analyte at 48 h, dosed SDC-TRAP-0423 7 mg/10 mL/kg IV, Table 5, second optimized procedure
[5] = of analyte at 72 h, dosed SDC-TRAP-0423 7 mg/10 mL/kg IV, Table 5, second optimized procedure
[6] = of analyte at 48 h, dosed SDC-TRAP-0426 25 mg/10 mL/kg IV, Table 4

Structure (SMILES): CC(C)c1cc(-c2nnc(O)n2-c2ccc(CC3CCN(CC(=O)Nc4cccc5c4CN(C4CCC(=O)NC4=O)C5=O)CC3)cc2)c(O)cc1O (centres unmarked) [SDC-TRAP-0116, 2-(4-(4-(3-(2,4-dihydroxy-5-isopropylphenyl)-5-hydroxy-4H-1,2,4-triazol-4-yl)benzyl)piperidin-1-yl)-N-(2-(2,6-dioxopiperidin-3-yl)-1-oxoisoindolin-4-yl) acetamide]
% Remaining (1 h) [1]: 91.1%
Tumor Conc. ([2]; 1 h): 13.7 nmol/g of tissue
Tumor Conc. ([2]; 6 h): 6.09 nmol/g of tissue
Tumor Conc. ([2]; 24 h): 2.78 nmol/g of tissue
Tumor Conc. ([2]; 48 h): 1.46 nmol/g of tissue
Tumor Conc. ([2]; […]): 17.7 nmol/g of tissue

Structure (SMILES): CCNC(=O)c1nnc(-c2cc(C(C)C)c(O)cc2O)n1-c1ccc(CN2CCC(C(=O)N[C@H](C(=O)Nc3cccc4c3CN(C3CCC(=O)NC3=O)C4=O)C(C)C)CC2)cc1 (stereo partly drawn) [SDC-TRAP-0163, 1-(4-(3-(2,4-dihydroxy-5-isopropylphenyl)-5-(ethylcarbamoyl)-4H-1,2,4-triazol-4-yl)benzyl)-N-((2S)-1-((2-(2,6-dioxopiperidin-3-yl)-1-oxoisoindolin-4-yl)amino)-3-methyl-1-oxobutan-2-yl)piperidine-4-carboxamide]
% Remaining (1 h) [1]: 93.0%

Structure (SMILES): CCNC(=O)c1nnc(-c2cc(C(C)C)c(O)cc2O)n1-c1ccc(CN2CCC(C(=O)N3CCC[C@H]3C(=O)Nc3cccc4c3CN(C3CCC(=O)NC3=O)C4=O)CC2)cc1 (stereo partly drawn) [SDC-TRAP-0164, 5-(2,4-dihydroxy-5-isopropylphenyl)-4-(4-((4-((2S)-2-((2-(2,6-dioxopiperidin-3-yl)-1-oxoisoindolin-4-yl)carbamoyl)pyrrolidine-1-carbonyl)piperidin-1-yl)methyl)phenyl)-N-ethyl-4H-1,2,4-triazole-3-carboxamide]
% Remaining (1 h) [1]: 98.0%

Structure (SMILES): CCNC(=O)c1nnc(-c2cc(C(C)C)c(O)cc2O)n1-c1ccc(Oc2ccc(C(=O)N[C@@H](CC(C)C)C(=O)Nc3cccc4c3CN(C3CCC(=O)NC3=O)C4=O)cc2)cc1 (stereo partly drawn) [SDC-TRAP-0191, 5-(2,4-dihydroxy-5-isopropylphenyl)-4-(4-(4-(((2S)-1-((2-(2,6-dioxopiperidin-3-yl)-1-oxoisoindolin-4-yl)amino)-4-methyl-1-oxopentan-2-yl)carbamoyl)phenoxy)phenyl)-N-ethyl-4H-1,2,4-triazole-3-carboxamide]
% Remaining (1 h) [1]: 77.4%

Structure (SMILES): CC(C)c1cc(-c2nnc(O)n2-c2ccc3c(ccn3CCCC3CCN(C(=O)c4ncn5c(=O)n(C)nnc45)CC3)c2)c(O)cc1O [SDC-TRAP-0345, 8-(4-(3-(5-(3-(2,4-dihydroxy-5-isopropylphenyl)-5-hydroxy-4H-1,2,4-triazol-4-yl)-1H-indol-1-yl)propyl)piperidine-1-carbonyl)-3-methylimidazo[5,1-d][1,2,3,5]tetrazin-4(3H)-one]
% Remaining (1 h) [1]: 63.8%

Structure (SMILES): CCc1c2c(nc3ccc(OS(=O)(=O)c4cccc(C(=O)N5CCN(Cc6ccc(-n7c(O)nnc7-c7cc(C(C)C)c(O)cc7O)cc6)CC5)c4)cc13)-c1cc3c(c(=O)n1C2)COC(=O)C3(O)CC (centres unmarked) [SDC-TRAP-0389, 4,11-diethyl-4-hydroxy-3,14-dioxo-3,4,12,14-tetrahydro-1H-pyrano[3′,4′:6,7]indolizino[1,2-b]quinolin-9-yl 3-(4-(4-(3-(2,4-dihydroxy-5-isopropylphenyl)-5-hydroxy-4H-1,2,4-triazol-4-yl)benzyl)piperazine-1-carbonyl)benzenesulfonate]
% Remaining (1 h) [1]: 77.7%

Structure (SMILES): CCc1c2c(nc3ccc(OS(=O)(=O)c4ccc(C(=O)N5CCC(CCn6ccc7cc(-n8c(O)nnc8-c8cc(C(C)C)c(O)cc8O)ccc76)CC5)cc4)cc13)-c1cc3c(c(=O)n1C2)COC(=O)C3(O)CC (centres unmarked) [SDC-TRAP-0390, 4,11-diethyl-4-hydroxy-3,14-dioxo-3,4,12,14-tetrahydro-1H-pyrano[3′,4′:6,7]indolizino[1,2-b]quinolin-9-yl 4-(4-(2-(5-(3-(2,4-dihydroxy-5-isopropylphenyl)-5-hydroxy-4H-1,2,4-triazol-4-yl)-1H-indol-1-yl)ethyl)piperidine-1-carbonyl)benzenesulfonate]
% Remaining (1 h) [1]: 92.5%

Structure (SMILES): CCNC(=O)c1nnc(-c2cc(C(C)C)c(O)cc2O)n1-c1ccc2c(c1)CN(C(=O)c1ccc(S(=O)(=O)Oc3ccc4nc5c(c(CC)c4c3)Cn3c-5cc4c(c3=O)COC(=O)C4(O)CC)cc1)C2 (centres unmarked) [SDC-TRAP-0393, 4,11-diethyl-4-hydroxy-3,14-dioxo-3,4,12,14-tetrahydro-1H-pyrano[3′,4′:6,7]indolizino[1,2-b]quinolin-9-yl 4-(5-(3-(2,4-dihydroxy-5-isopropylphenyl)-5-(ethylcarbamoyl)-4H-1,2,4-triazol-4-yl)isoindoline-2-carbonyl)benzenesulfonate]
% Remaining (1 h) [1]: 47.8%

Structure (SMILES): CCNC(=O)c1nnc(-c2cc(C(C)C)c(O)cc2O)n1-c1ccc(N(C)C2CCN(C(=O)CCC(=O)O[C@H](C(=O)O[C@@H]3C[C@]4(O)[C@H](OC(=O)c5ccccc5)[C@H]5C6(OC(C)=O)COC6C[C@@H](O)[C@]5(C)C(=O)[C@@H](O)C(=C3C)C4(C)C)[C@H](NC(=O)OC(C)(C)C)c3ccccc3)CC2)nc1 (some centres unmarked) [SDC-TRAP-0423]
concentration at 6 h ([3]; female, SCID, mouse, in vivo, of analyte at 6 h, dosed SDC-TRAP-0423 7 mg/10 mL/kg IV, Table 5, second optimized procedure, read-out: Plasma Conc.): 2210 nM
Tumor Conc. ([3]; of analyte at 6 h, dosed SDC-TRAP-0423 7 mg/10 mL/kg IV, Table 5, second optimized procedure): 0.730 nmol/g of tissue
Plasma Conc. [3, 4]: BQL
Tumor Conc. [3, 4]: 0.0538 nmol/g of tissue
Plasma Conc. [3, 5]: BQL
Tumor Conc. [3, 5]: 0.0186 nmol/g of tissue

Structure (SMILES): CC(=O)O[C@@]12CO[C@@H]1C[C@H](O)[C@@]1(C)C(=O)[C@H](O)C3=C(C)[C@@H](OC(=O)[C@H](OC(=O)CCC(=O)N4CCC(N5CCC(CCn6ccc7cc(-n8c(O)nnc8-c8cc(C(C)C)c(O)cc8O)ccc76)CC5)CC4)[C@@H](NC(=O)OC(C)(C)C)c4ccccc4)C[C@@](O)([C@@H](OC(=O)c4ccccc4)[C@H]21)C3(C)C [SDC-TRAP-0426]
concentration at 6 h ([3]; female, SCID, mouse, in vivo, of analyte at 6 h, dosed SDC-TRAP-0426 25 mg/10 mL/kg IV, Table 4, read-out: Plasma Conc.): 31.1 nM
concentration at 24 h ([3]; female, SCID, mouse, in vivo, of analyte at 24 h, dosed SDC-TRAP-0426 25 mg/10 mL/kg IV, Table 4, read-out: Plasma Conc.): 11.1 nM
Tumor Conc. ([3]; of analyte at 6 h, dosed SDC-TRAP-0426 25 mg/10 mL/kg IV, Table 4): 0.375 nmol/g of tissue
Tumor Conc. ([3]; of analyte at 24 h, dosed SDC-TRAP-0426 25 mg/10 mL/kg IV, Table 4): 0.256 nmol/g of tissue
Plasma Conc. [3, 6]: BQL
Tumor Conc. [3, 6]: 0.337 nmol/g of tissue

Now from value to molecule:

% Remaining (1 h) [1]: 92.7%
Structure (SMILES): CCNC(=O)c1nnc(-c2cc(C(C)C)c(O)cc2O)n1-c1ccc(Oc2ccc(C(=O)NC(Cc3ccccc3)C(=O)Nc3cc(-c4cnoc4-c4cc(OC)c(OC)c(OC)c4)ccc3OC)cc2)cc1 (centres unmarked) [SDC-TRAP-0158]

% Remaining (1 h) [1]: 94.1%
Structure (SMILES): CC(C)c1cc(-c2nnc(O)n2-c2ccc(CN3CCN(c4cnc(C(=O)Nc5cccc6c5CN(C5CCC(=O)NC5=O)C6=O)cn4)CC3)c(F)c2)c(O)cc1O (centres unmarked) [SDC-TRAP-0170, 5-(4-(4-(3-(2,4-dihydroxy-5-isopropylphenyl)-5-hydroxy-4H-1,2,4-triazol-4-yl)-2-fluorobenzyl)piperazin-1-yl)-N-(2-(2,6-dioxopiperidin-3-yl)-1-oxoisoindolin-4-yl)pyrazine-2-carboxamide]

% Remaining (1 h, 10 μM) ([1]; 10 μM): 98.3%
Structure (SMILES): CCNC(=O)c1nnc(-c2cc(C(C)C)c(O)cc2O)n1-c1ccc(CN2CCC(C(=O)N(C)CCCOC(=O)Nc3cccc4c3CN(C3CCC(=O)NC3=O)C4=O)CC2)cc1 (centres unmarked) [SDC-TRAP-0231, 3-(1-(4-(3-(2,4-dihydroxy-5-isopropylphenyl)-5-(ethylcarbamoyl)-4H-1,2,4-triazol-4-yl)benzyl)-N-methylpiperidine-4-carboxamido)propyl (2-(2,6-dioxopiperidin-3-yl)-1-oxoisoindolin-4-yl)carbamate]

% Remaining (1 h) [1]: 63.2%
Structure (SMILES): CO[C@H]1/C=C\C=C(/C)C(=O)NC2=CC(=O)C(NCCCCCCNC(=O)c3ncn4c(=O)n(C)nnc34)=C(C[C@@H](C)C[C@H](OC)[C@@H](O)[C@@H](C)/C=C(\C)[C@@H]1OC(N)=O)C2=O [SDC-TRAP-0267, (4E,6Z,8S,9S,10E,12S,13S,14S,16R)-13-hydroxy-8,14-dimethoxy-4,10,12,16-tetramethyl-19-((6-(3-methyl-4-oxo-3,4-dihydroimidazo[5,1-d][1,2,3,5]tetrazine-8-carboxamidohexyl)amino)-3,20,22-trioxo-2-azabicyclo[16.3.1]docosa-1(21),4,6,10,18-pentaen-9-yl carbamate]
